Data taken from PubChem BioAssay AID330 (DTP/NCI, 2004).
“And” between values parts separate entries of the source, which are not always exact repeats. Identical values can stand only once. Inconclusive results and toxic doses are left out. The calls were made as follows: active = survival T/C of 150% or more; inactive = T/C below 125% in these data.

Tested on: P388 leukemia ip, CD2F1 mice, survival T/C
Test: NCI In Vivo Anticancer Drug Screen. Data for tumor model P388 Leukemia (intraperitoneal) in CD2F1 (CDF1) mice
Details: endpoint: median survival time, higher = longer survival
Outline: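 Mice carrying the transplanted tumor received test compound or vehicle. Survival was recorded in each group, and the value is the treated-group measurement divided by that of the vehicle-treated control group.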

[1] = dose: 50.0 mg/kg/injection, schedule: Q01DX009 (ip), vehicle: saline with Tween-80
[2] = dose: 100.0 mg/kg/injection, schedule: Q01DX009 (ip), vehicle: saline with Tween-80
[3] = dose: 200.0 mg/kg/injection, schedule: Q01DX009 (ip), vehicle: saline with Tween-80
[4] = dose: 50.0 mg/kg/injection, schedule: Q04DX003 (ip), vehicle: saline
[5] = dose: 50.0 mg/kg/injection, schedule: Q01DX005 (ip), vehicle: saline with Tween-80
[6] = dose: 100.0 mg/kg/injection, schedule: Q01DX005 (ip), vehicle: saline with Tween-80
[7] = dose: 200.0 mg/kg/injection, schedule: Q01DX005 (ip), vehicle: saline with Tween-80
[8] = dose: 100.0 mg/kg/injection, schedule: Q04DX003 (ip), vehicle: saline
[9] = dose: 200.0 mg/kg/injection, schedule: Q04DX003 (ip), vehicle: saline
[10] = dose: 50.0 mg/kg/injection, schedule: Q01DX005 (ip), vehicle: Klucel (hydroxypropylcellulose) (HPC)
[11] = dose: 100.0 mg/kg/injection, schedule: Q01DX005 (ip), vehicle: Klucel (hydroxypropylcellulose) (HPC)
[12] = dose: 200.0 mg/kg/injection, schedule: Q01DX005 (ip), vehicle: Klucel (hydroxypropylcellulose) (HPC)
[13] = dose: 50.0 mg/kg/injection, schedule: Q01DX009 (ip), vehicle: saline
[14] = dose: 100.0 mg/kg/injection, schedule: Q01DX009 (ip), vehicle: saline
[15] = dose: 200.0 mg/kg/injection, schedule: Q01DX009 (ip), vehicle: saline
[16] = dose: 100.0 mg/kg/injection, schedule: Q04DX003 (ip), vehicle: saline with Tween-80
[17] = dose: 200.0 mg/kg/injection, schedule: Q04DX003 (ip), vehicle: saline with Tween-80
[18] = dose: 400.0 mg/kg/injection, schedule: Q04DX003 (ip), vehicle: saline with Tween-80

Measured: T/C

CCOC(=O)CN1CCC2CC1c1c([nH]c3ccccc13)C2c1cc2c(cc1OC)N(C)C1C(O)(C(=O)OC)C(OC(C)=O)C3(CC)C=CCN4CCC21C43 (centres undefined)
inactive: dose: 0.03 mg/kg/injection, schedule: Q04DX003 (ip), vehicle: saline with Tween-80 94 % of control | dose: 0.06 mg/kg/injection, schedule: Q01DX009 (ip), vehicle: Klucel (hydroxypropylcellulose) (HPC) 94 % of control | dose: 0.06 mg/kg/injection, schedule: Q04DX003 (ip), vehicle: saline with Tween-80 92 % of control | dose: 0.13 mg/kg/injection, schedule: Q01DX009 (ip), vehicle: Klucel (hydroxypropylcellulose) (HPC) 93 % of control | dose: 0.13 mg/kg/injection, schedule: Q04DX003 (ip), vehicle: saline with Tween-80 95 % of control | dose: 0.25 mg/kg/injection, schedule: Q04DX003 (ip), vehicle: saline with Tween-80 98 % of control | dose: 0.5 mg/kg/injection, schedule: Q04DX003 (ip), vehicle: saline with Tween-80 112 % of control | dose: 1.0 mg/kg/injection, schedule: Q01DX009 (ip), vehicle: Klucel (hydroxypropylcellulose) (HPC) 90 % of control | dose: 13.0 micrograms/kg/injection, schedule: Q01DX009 (ip), vehicle: Klucel (hydroxypropylcellulose) (HPC) 98 % of control | dose: 25.0 micrograms/kg/injection, schedule: Q01DX009 (ip), vehicle: Klucel (hydroxypropylcellulose) (HPC) 103 % of control | dose: 50.0 micrograms/kg/injection, schedule: Q01DX009 (ip), vehicle: Klucel (hydroxypropylcellulose) (HPC) 94 % of control | dose: 100.0 micrograms/kg/injection, schedule: Q01DX009 (ip), vehicle: Klucel (hydroxypropylcellulose) (HPC) 100 % of control | dose: 200.0 micrograms/kg/injection, schedule: Q01DX009 (ip), vehicle: Klucel (hydroxypropylcellulose) (HPC) 103 % of control

c1ccc2sc(-c3ccncc3)nc2c1
inactive: [1] 102 % of control | [2] 99 % of control | [3] 108 % of control

N=C(N)c1ccc(NC(=O)c2cc3ccc(C(=N)N)cc3o2)cc1
inactive: dose: 12.5 mg/kg/injection, schedule: Q04DX003 (ip), vehicle: saline 101 % of control | dose: 25.0 mg/kg/injection, schedule: Q04DX003 (ip), vehicle: saline 101 % of control | [4] 102 % of control

C=COC(=O)C(NC(=O)OCc1ccccc1)c1ccccc1 (centres undefined)
inactive: [5] 102 % of control | [6] 101 % of control | [7] 95 % of control

Cc1ccc(S(=O)(=O)C(c2ccccc2)C(Br)C(=O)c2ccccc2)cc1 (centres undefined)
inactive: [8] 87 % of control | [9] 88 % of control

COc1cc(C(c2cc3c(cc2O)OCO3)N2CCOCC2)cc(OC)c1OC (centres undefined)
inactive: dose: 60.0 mg/kg/injection, schedule: Q01DX005 (ip), vehicle: saline with Tween-80 107 % of control | dose: 120.0 mg/kg/injection, schedule: Q01DX005 (ip), vehicle: saline with Tween-80 111 % of control

O=[N+]([O-])c1cccc2c(S(=O)(=O)O)cccc12
inactive: [4] 90 % of control | [8] 100 % of control | [9] 90 % of control

Cc1cc(C(O)(C(F)(F)F)C(F)(F)F)cc(C(O)(C(F)(F)F)C(F)(F)F)c1
inactive: [10] 100 % of control | [11] 91 % of control | [12] 97 % of control

CC(C)NC(=O)OCc1c(COC(=O)NC(C)C)c(-c2ccc(Cl)c(Cl)c2)n2c1CC(OC(=O)CN(C)C)C2 (centres undefined)
inactive: dose: 2.5 mg/kg/injection, schedule: Q01DX009 (ip), vehicle: water 101 % of control | dose: 5.0 mg/kg/injection, schedule: Q01DX009 (ip), vehicle: distilled water + Tween-80 111 % of control | dose: 5.0 mg/kg/injection, schedule: Q01DX009 (ip), vehicle: water 117 % of control | dose: 10.0 mg/kg/injection, schedule: Q01DX009 (ip), vehicle: distilled water + Tween-80 122 % of control | dose: 80.0 mg/kg/injection, schedule: Q01DX009 (ip), vehicle: water 110 % of control

CCC1C(=O)COC1=O (centres undefined)
inactive: [10] 99 % of control | [11] 99 % of control | [12] 99 % of control

CC(C)(COS(C)(=O)=O)COS(C)(=O)=O
inactive: [13] 107 % of control | dose: 50.0 mg/kg/injection, schedule: Q01DX009 (ip), vehicle: suspension in saline 96 % of control | [14] 91 % of control | dose: 100.0 mg/kg/injection, schedule: Q01DX009 (ip), vehicle: suspension in saline 101 % of control and 91 % of control | [15] 110 % of control | dose: 200.0 mg/kg/injection, schedule: Q01DX009 (ip), vehicle: suspension in saline 104 % of control and 92 % of control | dose: 400.0 mg/kg/injection, schedule: Q01DX009 (ip), vehicle: suspension in saline 112 % of control and 90 % of control

N=Nc1c(OC(=O)Nc2cccc(Cl)c2)[nH]c2ccccc12
inactive: [1] 94 % of control | [2] 90 % of control | [3] 93 % of control

Cc1cc[n+]2cc(-c3ccc(/C=N/N=C(N)N)cc3)n(C)c2c1
inactive: dose: 1.56 mg/kg/injection, schedule: Q01DX005 (ip), vehicle: Klucel (hydroxypropylcellulose) (HPC) 100 % of control | dose: 3.12 mg/kg/injection, schedule: Q01DX005 (ip), vehicle: Klucel (hydroxypropylcellulose) (HPC) 103 % of control | dose: 6.25 mg/kg/injection, schedule: Q01DX005 (ip), vehicle: Klucel (hydroxypropylcellulose) (HPC) 102 % of control and 107 % of control

CC1=C2[C@H]3OC(=O)[C@@H](C)[C@@H]3CC[C@@]2(C)C=C/C1=N\O
inactive: [5] 103 % of control | [6] 95 % of control | [7] 96 % of control

COc1c2ccncc2c(C)c2c1[nH]c1ccccc12
inactive: dose: 6.25 mg/kg/injection, schedule: Q04DX002 (ip), vehicle: distilled water + Tween-80 98 % of control | dose: 12.5 mg/kg/injection, schedule: Q04DX002 (ip), vehicle: distilled water + Tween-80 94 % of control | dose: 25.0 mg/kg/injection, schedule: Q04DX002 (ip), vehicle: distilled water + Tween-80 94 % of control | dose: 50.0 mg/kg/injection, schedule: Q04DX002 (ip), vehicle: distilled water + Tween-80 89 % of control | dose: 100.0 mg/kg/injection, schedule: Q04DX002 (ip), vehicle: distilled water + Tween-80 89 % of control | dose: 200.0 mg/kg/injection, schedule: Q04DX002 (ip), vehicle: distilled water + Tween-80 88 % of control

COCCn1c(=O)[nH]c(=O)c2c(Nc3ccccc3)snc21
inactive: dose: 25.0 mg/kg/injection, schedule: Q01DX009 (ip), vehicle: saline 100 % of control and 93 % of control | [13] 98 % of control and 99 % of control and 89 % of control | [2] 95 % of control | [14] 98 % of control and 112 % of control and 97 % of control | [3] 100 % of control | [15] 99 % of control

CC1(O)CCC2C3CCC4CC(=O)CCC4(C)C3(F)C(O)CC21C (centres undefined)
inactive: [2] 100 % of control | [16] 100 % of control | [3] 100 % of control | [17] 100 % of control | dose: 400.0 mg/kg/injection, schedule: Q01DX009 (ip), vehicle: saline with Tween-80 95 % of control | [18] 100 % of control

O=C1c2cscc2C(=O)c2cscc21
inactive: dose: 12.5 mg/kg/injection, schedule: Q01DX009 (ip), vehicle: saline with Tween-80 98 % of control | dose: 25.0 mg/kg/injection, schedule: Q01DX009 (ip), vehicle: saline with Tween-80 100 % of control | [1] 96 % of control | [2] 94 % of control

CCC(c1ccc(Cl)cc1)C(C#N)c1ccccc1 (centres undefined)
inactive: [16] 100 % of control | [17] 97 % of control | [18] 100 % of control

CCC1(CCC(C)C)C(=O)N(CCCl)C(=O)N(CCCl)C1=O
inactive: [1] 100 % of control | [2] 105 % of control | [3] 96 % of control
